Assay results from patent publication US8518968B2, “Hydrazone and diacyl hydrazine compounds and methods of use” (The United States of America, as represented by the …, priority 2009, dated 2013).
Like-named read-outs stand apart in the source and are kept apart here.

Experiments:
[1] = tested on: p97 mutants (p97ΔN, p97ΔD2); experiment: Avidin bead pull-down of p97 mutants with immobilized B-NFC; format: binding; details: p97ΔN or p97ΔD2, avidin beads
JEKO-1 cells [2] = tested on: JEKO-1 cells
ATF3, ATF4, NOXA = experiment: Immunoblot of ER stress markers, NOXA, ubiquitin and histone H2A in JEKO-1 cells; format: cell-based; details: for expression level of ATF3, ATF4 and NOXA: 8 hrs
293T cells = experiment: Whole genome array gene expression in 293T cells; format: cell-based, human; details: 10 μM, 10 h
Protocol: To further confirm that both EerI and 5-NA can influence p97 function in cells, the gene expression pattern of EerI-treated cells is compared to that of 5-NA-treated cells using whole genome array hybridization. […] These studies are performed in 293T cells because they are highly transfectable, making them well suited for genetic manipulation by siRNA. Cells were treated with EerI, CBU-028, or 5-NA each at 10 μM in duplicates for 10 h. Total RNA was extracted using TRIzol reagent (Invitrogen, Carlsbad, Calif.), and subsequently purified using an RNeasy MinElute Cleanup kit (QIAGEN, Valencia, Calif.). For array hybridization, RNA samples were processed and analyzed by The National Institute of Diabetes and Digestive and Kidney Diseases (NIDDK) Microarray Core Facility. The Affymetrix gene expression analysis array for the human HG-U133A—2—0 was used (Affymetrix). The microarray signals were analyzed using the Affymetrix RMA algorithm. […] To determine specific pathways, gene pathway analysis were conducted using software from Genego, Inc., using the statistical significant ANOVA gene list (p<0.05, fold change >1.5) represented on the chip. Microarray data is MIAME compliant and that the raw data has been deposited in the Gene Expression Omnibus (GEO) database (accession no. GSE23849).

p97 ATPase = p97 ATPase (Homo sapiens, UniProt P55072); experiment: In vitro ATPase activity of p97; format: biochemical; details: data not shown
Chain of p97 ATPase (P55072 whole entry): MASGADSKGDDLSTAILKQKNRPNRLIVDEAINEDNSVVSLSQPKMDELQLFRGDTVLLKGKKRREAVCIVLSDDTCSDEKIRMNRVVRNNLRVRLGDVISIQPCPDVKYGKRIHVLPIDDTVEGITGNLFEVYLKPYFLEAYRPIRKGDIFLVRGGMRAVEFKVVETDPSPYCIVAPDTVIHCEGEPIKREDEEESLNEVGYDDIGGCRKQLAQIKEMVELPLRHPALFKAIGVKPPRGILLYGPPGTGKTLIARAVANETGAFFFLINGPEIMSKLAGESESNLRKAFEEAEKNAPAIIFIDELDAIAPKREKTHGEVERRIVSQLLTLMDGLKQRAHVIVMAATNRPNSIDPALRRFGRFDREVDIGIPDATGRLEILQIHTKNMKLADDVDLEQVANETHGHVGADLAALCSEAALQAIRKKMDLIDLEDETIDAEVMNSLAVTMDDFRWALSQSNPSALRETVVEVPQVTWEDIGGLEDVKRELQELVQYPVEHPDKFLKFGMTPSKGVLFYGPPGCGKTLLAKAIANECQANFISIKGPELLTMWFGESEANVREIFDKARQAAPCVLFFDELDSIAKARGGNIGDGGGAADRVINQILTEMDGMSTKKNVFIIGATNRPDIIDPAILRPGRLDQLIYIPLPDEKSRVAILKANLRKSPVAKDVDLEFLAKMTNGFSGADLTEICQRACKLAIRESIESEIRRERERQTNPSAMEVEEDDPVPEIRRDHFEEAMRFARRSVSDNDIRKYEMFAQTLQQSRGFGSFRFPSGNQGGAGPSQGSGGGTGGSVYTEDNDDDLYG
Protocol: To understand how EerI binding might affect p97 function, in vitro ATPase activity of p97 in the presence of EerI was measured. No effect of EerI on the p97 ATPase activity was found (data not shown).

GFPμ = experiment: Stabilization of soluble p97 substrate GFPμ in 293T cells; format: cell-based; details: 10 μM
Protocol: The experiments are performed as described above for TCRα-YFP, except that 293 T cells stably expressing GFP are used.

[3] = tested on: primary chronic lymphocytic leukemia (CLL) cells or normal peripheral blood mononuclear cells (PBMC); experiment: Cytotoxic activity against primary cells (MTT); format: cell-based; details: 5×10e6 cells/ml, 48 hrs
Protocol: The cytotoxic activity of CBU-028 or EERI against primary cells is determined as a function of concentration. Cell viability of primary chronic lymphocytic leukemia (CLL) cells or normal peripheral blood mononuclear cells (PBMC) at a concentration of 5×10e6 cells/ml is determined after treatment with CBU-028 or EERI for 48 hrs in triplicates. Viability is determined using the MTT assay, as described previously, with data normalized to the untreated control.

[4] = biological target: T1, recombinant wild type p97 (Homo sapiens, UniProt P55072); experiment: Surface plasmon resonance binding to recombinant p97; details: SPR, 25° C., recombinant p97 purified from E. coli; read-out: estimated Kd
T1 construct: made in house; host or cells: E. coli
T1 sequence (P55072 whole entry): as above
Protocol: The strength of EerI binding to recombinant p97 purified from E. coli was tested using surface plasma resonance (SPR). Surface plasmon resonance interaction experiments were carried out at 25° C. on a Biacore T100 system (GE healthcare). […] Briefly, the carboxymethyl group of dextran was activated with N-ethyl-N′-(3-dimethylaminopropyl)carbodiimide (EDC) and N-hydroxysuccinimide (NHS). Then, p97 in a 10 mM sodium acetate (pH 4.5) buffer was injected at a flow rate of 10 μl/min with 2 min contact time and immobilized at a level of ˜8,000 RU. Any remaining reactive sites in the flow cell were blocked by ethanolamine. The drug association and dissociation were monitored at a flow rate of […] with the analyte concentration ranging from 3.125 μM to 50 μM in a buffer containing 10 mM HEPES (pH 7.4), 150 mM NaCl, 0.005% v/v Surfactant P20. Regeneration of the chip was achieved by extended washing with the analyte buffer. SPR signal was normalized using a reference flow cell containing no p97. […] The Rmax was then calculated, and the binding relative to the Rmax from three independent experiments was averaged. […]
The affinity of CBU-028, EERI, and compound 5138380 to purified p97 is measured by surface plasmon resonance (SPR). […] Association and dissociation of the compounds are monitored at a flow rate of 20 μL/min at concentrations ranging from 1.6 μM to 100 μM. […]

p97 [5] = biological target: T2, p97 (Homo sapiens, UniProt P55072); experiment: Limited trypsin digestion of purified p97; details: purified p97 pre-incubated with compound
T2 sequence (P55072 whole entry): as above
Protocol: Sensitivity of p97 to limited trypsin digestion in the presence and absence of EerI was tested to determine whether binding of EerI to p97 could alter p97 conformation. The purified p97 protein (1.5 μg) was incubated at in a buffer containing 200 ng trypsin in 50 μl volume. Samples were taken out at different time points and mixed with the Laemmli buffer before SDS-PAGE and silver staining analyses.

membrane associated p97 = biological target: T3, membrane associated p97 (Homo sapiens, UniProt P55072); experiment: Membrane/cytosol fractionation and p97 immunoblot in 293T cells; format: cell-based; details: 10 μM, 6 hr, membrane and cytosol fractions
T3 construct: endogenous in cells; host or cells: 293T cells
T3 sequence (P55072 2-806 limits assumed): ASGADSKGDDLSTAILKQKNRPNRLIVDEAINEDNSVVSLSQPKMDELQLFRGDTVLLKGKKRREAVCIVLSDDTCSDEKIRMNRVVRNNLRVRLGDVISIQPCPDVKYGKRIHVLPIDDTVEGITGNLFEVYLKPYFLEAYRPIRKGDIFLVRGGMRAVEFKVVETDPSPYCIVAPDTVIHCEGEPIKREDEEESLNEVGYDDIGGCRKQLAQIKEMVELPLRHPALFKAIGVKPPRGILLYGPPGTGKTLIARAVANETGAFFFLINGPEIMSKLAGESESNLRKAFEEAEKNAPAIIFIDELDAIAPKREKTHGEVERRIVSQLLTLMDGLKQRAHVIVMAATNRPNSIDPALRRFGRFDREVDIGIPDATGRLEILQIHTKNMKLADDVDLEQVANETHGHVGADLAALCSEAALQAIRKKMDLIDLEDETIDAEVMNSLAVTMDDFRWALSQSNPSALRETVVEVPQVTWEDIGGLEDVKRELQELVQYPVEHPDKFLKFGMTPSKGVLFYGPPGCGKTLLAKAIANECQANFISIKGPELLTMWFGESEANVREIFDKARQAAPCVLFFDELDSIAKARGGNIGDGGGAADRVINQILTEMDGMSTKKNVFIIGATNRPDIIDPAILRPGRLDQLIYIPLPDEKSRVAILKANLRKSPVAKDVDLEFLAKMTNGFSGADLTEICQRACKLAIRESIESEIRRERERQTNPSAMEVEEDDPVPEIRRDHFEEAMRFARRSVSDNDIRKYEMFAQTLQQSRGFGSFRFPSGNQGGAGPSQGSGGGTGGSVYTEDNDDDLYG
Protocol: Cells were fractionated into membrane and cytosol fractions. Proteins extracted from these fractions were analyzed by immunoblotting with antibodies to p97, E1, and Sec61β, and ER-resident protein as shown in FIG. 2 e.

TCRα-YFP = experiment: Stabilization of ERAD substrate TCRα-YFP in 293T cells; format: cell-based; details: 293T cells stably expressing TCRα-YFP, 10 μM (10 mM in method), 10 h
Protocol: 293T cells stably expressing TCRα-YFP are treated with the indicated compounds ([…]) or as a control with DMSO for 10 h. Cells are lysed in RIPA buffer (50 mM Tris, pH 7.5, 1% NP40, 0.1% SDS, 0.5% sodium deoxycholate, 150 mM sodium chloride, 2 mM EDTA and a protease inhibitor cocktail). TCRα-YFP is immunoprecipitated from the cell extract using an anti-green fluorescent protein (GFP) antibody. The precipitated material is analyzed by SDS-PAGE and immunoblotting with antibodies against uUb and GFP. The whole cell extracts are also analyzed by SDS-PAGE and immunoblotting with antibodies against p. 97.

[6] = tested on: JEKO-1 cells stably transfected with shRNAs to luciferase or NOXA; experiment: Effect of NOXA shRNA on cytotoxicity in JEKO-1 cells (MTT); format: cell-based; details: JEKO-1 shLuc vs shNoxa, 24 hours
Protocol: The effect of NOXA on cytotoxicity of CBU-028, EERI, or bortezomib is determined. FIG. 4 presents graphs comparing CBU-028, EERI, and bortezomib with respect to percent cell viability as a function of concentration, measured using JEKO-1 cells stably transfected with shRNAs to luciferase (shLuc, control, ▪) or NOXA (shNoxa, ◯, sequence: [NT]) after treatment with the compound for 24 hrs, with viability determined with MTT as described above and normalized to the untreated control.

JEKO-1 cells [7] = experiment: cells; details: Homo sapiens, JeKo-1, 48 h, JEKO-1 cells, incubated 2 days, MTT, four parameter logistic fit
CLL cells = experiment: Synergy of CBU-028 with bortezomib against CLL cells (MTT); format: cell-based; details: fixed molar relation 1:2000 (BZM:CBU-028), 48 hours
Protocol: FIG. 6. […] To test for synergy between BZM and CBU-028, CLL cells were incubated in-vitro to increasing concentrations of each compound individually as well as to a combination of both drugs. The combination was tested at a fixed molar relation of 1:2000, e.g. 4 nM BZM was combined with 8 uM CBU-028. 5×10^6 cells/mL were incubated for 48 hours and cell viability was measured with MTT. Synergy is found where the effect of the combination of the two compounds exceeds the additive effect of each compound separately. The left graph shown the result of a representative experiment (CLL—4235) across all concentrations tested. The graph on the right summarizes the data for 7 individual CLL patients.

heat shock protein Hsp70 = experiment: Avidin bead pull-down of Hsp70 with immobilized B-NFC; format: binding; details: avidin beads
[8] = biological target: N-ethylmaleimide-sensitive factor (NSF) (Homo sapiens, UniProt P46459); experiment: Avidin bead pull-down of NSF with immobilized B-NFC; format: binding; details: avidin beads
Chain of N-ethylmaleimide-sensitive factor (NSF) (P46459 whole entry, species assumed): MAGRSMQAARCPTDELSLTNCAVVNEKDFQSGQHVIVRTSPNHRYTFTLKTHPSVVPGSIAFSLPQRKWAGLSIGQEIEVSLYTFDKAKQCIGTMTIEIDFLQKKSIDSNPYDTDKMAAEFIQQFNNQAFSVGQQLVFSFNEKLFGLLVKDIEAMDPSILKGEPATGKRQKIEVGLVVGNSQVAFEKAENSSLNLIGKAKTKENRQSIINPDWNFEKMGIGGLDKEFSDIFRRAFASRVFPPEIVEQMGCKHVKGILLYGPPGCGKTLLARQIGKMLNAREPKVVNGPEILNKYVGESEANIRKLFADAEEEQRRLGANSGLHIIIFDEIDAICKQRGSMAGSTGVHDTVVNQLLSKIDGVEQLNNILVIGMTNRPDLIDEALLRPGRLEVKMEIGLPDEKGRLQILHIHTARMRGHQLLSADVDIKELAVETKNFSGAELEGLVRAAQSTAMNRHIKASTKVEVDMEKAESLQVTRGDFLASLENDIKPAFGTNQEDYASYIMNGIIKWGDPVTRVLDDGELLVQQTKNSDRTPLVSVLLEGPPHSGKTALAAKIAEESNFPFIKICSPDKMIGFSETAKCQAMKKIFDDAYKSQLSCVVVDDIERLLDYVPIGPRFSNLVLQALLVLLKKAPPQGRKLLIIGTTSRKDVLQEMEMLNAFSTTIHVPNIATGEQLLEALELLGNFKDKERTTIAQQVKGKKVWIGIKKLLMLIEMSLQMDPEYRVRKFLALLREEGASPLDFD

p97 [9] = biological target: T2, p97; experiment: Avidin bead pull-down of p97 with immobilized B-NFC; format: binding; details: monomeric avidin beads, biotin beads as negative control

Chain of p97 mutants (p97ΔN, p97ΔD2) (P55072 209-458 limits assumed, stated change not applied): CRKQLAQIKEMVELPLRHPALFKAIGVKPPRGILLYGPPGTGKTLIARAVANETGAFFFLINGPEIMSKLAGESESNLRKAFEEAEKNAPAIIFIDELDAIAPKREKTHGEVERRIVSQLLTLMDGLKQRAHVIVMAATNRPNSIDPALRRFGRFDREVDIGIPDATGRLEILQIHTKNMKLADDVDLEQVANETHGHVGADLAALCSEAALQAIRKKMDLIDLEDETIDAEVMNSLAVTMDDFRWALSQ

5-nitrofuryl-acrolein
binding of p97 mutants to immobilized compound [1]: also bound | cell viability / cytotoxic activity (in words) (JEKO-1 cells [2]): cytotoxic activity at a concentration lower than that shown by EERI | expression level of ATF3, ATF4 and NOXA (ATF3, ATF4, NOXA; 2.5 μM): comparable to that present after treatment with EERI | number of genes up- or down-regulated by at least 2-fold by both EerI and 5-NA (293T cells): 29 genes | number of genes up- or down-regulated by at least 2-fold only by this compound (293T cells): 306 genes

CC1(C)C(N(O)C(=O)Nc2ccc(C(F)(F)F)cc2)N(c2ccc(Cl)cc2)C(=O)N1CC(=O)N/N=C/C=C/c1ccc([N+](=O)[O-])o1 (stereo not shown) [CBU-003]
effect on p97 ATPase activity (p97 ATPase): No effect | stabilization of soluble p97 substrate GFPμ (GFPμ): stabilize the soluble p97 substrate GFPμ in polyubiquitinated forms | sensitivity of PBMC compared with CLL cells [3]: PBMC are less sensitive | Kd [4]: 5 to 10 µM | IC50 (JEKO-1 cells [2]; JEKO-1 cells, incubated 2 days, MTT, four parameter logistic fit): 3.5 µM | sensitivity of p97 to limited trypsin digestion (p97 [5]): caused a delay in the proteolysis of two p97 fragments by trypsin | location of slow migrating (oligomerized) p97 species induced by compound (membrane associated p97): primarily in the membrane fraction, not in the cytosol fraction | expression level of ATF3, ATF4 and NOXA (ATF3, ATF4, NOXA; 10 μM): comparable to that present after treatment with EERI | stabilization of ERAD substrate TCRα-YFP (TCRα-YFP): stabilize the ERAD substrate TCRα-YFP in polyubiquitinated forms | number of genes up- or down-regulated by at least 2-fold by both EerI and 5-NA (293T cells): 29 genes | number of genes up- or down-regulated by at least 2-fold only by this compound (293T cells): 25 genes | requirement of NOXA for cytotoxicity [6]: Noxa is equally required

O=C(N/N=C/C=C/c1ccc([N+](=O)[O-])o1)c1cc2ccccc2cc1O [CBU-028, (E)-3-hydroxy-N′-((E)-3-(5-nitrofuran-2-yl)allylidene)-2-naphthohydrazide]
stabilization of soluble p97 substrate GFPμ (GFPμ): stabilize the soluble p97 substrate GFPμ in polyubiquitinated forms | sensitivity of PBMC compared with CLL cells [3]: PBMC are less sensitive | IC50 (JEKO-1 cells [7]): 3 µM | NOXA protein level (ATF3, ATF4, NOXA; 10 μM, time course): upregulates NOXA protein level | expression of ER stress markers ATF3 and ATF4 (ATF3, ATF4, NOXA; 10 μM, time course): induces expression of the ER stress markers ATF3 and ATF4 | polyubiquitinated proteins (ATF3, ATF4, NOXA; 10 μM, time course): causes accumulation of polyubiquitinated proteins | ubiquitinated histone H2A (ATF3, ATF4, NOXA; 10 μM, time course): downregulates ubiquitinated histone H2A | stabilization of ERAD substrate TCRα-YFP (TCRα-YFP): stabilize the ERAD substrate TCRα-YFP in polyubiquitinated forms | synergy with bortezomib (CLL cells): Synergizes with Bortezomib | requirement of NOXA for cytotoxicity [6]: Noxa is equally required

O=C(CCCC[C@@H]1SCC2NC(=O)NC21)N/N=C/C=C/c1ccc([N+](=O)[O-])o1 (stereo partly drawn) [CBU-032, (E)-N′-((E)-3-(5-nitrofuran-2-yl)allylidene)-5-((4S)-2-oxohexahydro-1H-thieno[3,4-d]imidazol-4-yl)pentanehydrazide]
binding of Hsp70 to immobilized compound (heat shock protein Hsp70): neither the heat shock protein Hsp70, nor the homologous AAA ATPase, N-ethylmaleimide-sensitive factor (NSF), showed significant binding | IC50 (JEKO-1 cells [7]): 25 µM | binding of NSF to immobilized compound [8]: neither the heat shock protein Hsp70, nor the homologous AAA ATPase, N-ethylmaleimide-sensitive factor (NSF), showed significant binding | precipitation of p97 by immobilized compound (p97 [9]): consistently precipitated more p97, than biotin
